Results from US10124065B2, “Lipids and lipid compositions for the delivery of active agents” (Novartis AG, priority 2013, dated 2018).

How the values were obtained:
[1] = Particle size of lipid nanoparticle (dynamic light scattering, Malvern Zetasizer); type: physicochemical
Procedure, shortened: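 Sizes are average diameters of fully formed nanoparticles measured by dynamic light scattering. Samples were diluted in PBS to a count rate of about 200–400 kcts. Values are intensity-weighted Z-average sizes.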

[2] = Polydispersity index (PDI) of lipid nanoparticle (dynamic light scattering); type: physicochemical
Experimental: Unless indicated otherwise, all PDIs referred to herein are the PDI of the fully formed nanoparticle, as measured by dynamic light scattering on a Malvern Zetasizer. The nanoparticle sample was diluted in phosphate buffered saline (PBS) so that the count rate was approximately 200-400 kcts. The data is presented in Tables 4 and 5 as a weighted average of the intensity measure.

[3] = Measurement of mRNA encapsulation (Quant-iT Ribogreen); type: physicochemical; conditions: leptin mRNA in lipid nanoparticles (cationic lipid, DSPC, cholesterol, stealth lipid)
Experimental: All equipment and disposable supplies were certified free of RNase activity by the manufacturer or rendered RNase free by use of the RNaseZap reagent (LifeTechnologies). mRNA was encapsulated at a cationic lipid amine to mRNA phosphate (N:P) molar ratio of 4:1. Lipids (cationic lipid, DSPC, cholesterol and lipidated PEG or stealth lipid) were dissolved in ethanol. The molar ratios were […], respectively. The mixture was sonicated briefly, then gently agitated for 5 minutes and then maintained at 37° C. until use. mRNA was exchanged into citrate buffer pH 5.8-6.0 by use of Amicon Ultra-15 centrifugal concentrators, and the final concentration was adjusted to 0.5 mg/ml and held at 37° C. until use. An equal volume of lipids in ethanol, mRNA in citrate buffer, and citrate buffer alone were drawn into disposable syringes. Tubing leading from syringes containing lipids and mRNA are attached to the T junction, and tubing leading from the syringe containing citrate buffer alone was paired with the tubing exiting the T-junction over a collection vessel containing a stir bar on an active stir plate. Syringes were placed in a syringe pump set to expel contents at a flow rate of 1 ml per minute.
The pump was activated, and the collected mRNA in lipid nanoparticles was transferred to SnakeSkin dialysis tubing (10,000 MWCO, Thermo Scientific). Material was dialyzed against RNAse- and pyrogen-free 1× phosphate buffered saline overnight at 4° C.
Percent encapsulation of mRNA in lipid nanoparticles was determined using the Quant-iT Ribogreen RNA Assay kit (Life Technologies). The LNP-mRNA suspension was assayed in buffer (mRNA outside the particle), and buffer plus Triton X-100 detergent (total mRNA). The difference calculated was the mRNA inside the particle. A 1000 ng/mL stock from the RNA provided in the kit was prepared and used to generate a standard curve (0 ng/ml, 15.63-1000 ng/ml) in TE and TE+0.75% Triton X-100. LNP-mRNA samples in TE buffer and TE buffer+0.75% Triton X-100 were prepared with appropriate dilution so that reading was in the range of standard curve (400-2,000 fold). In a 384-well plate (Costar non-treated #3573) 0.04 ml of standard (in duplicate) or sample (in triplicate) were added per well. Ribogreen reagent was diluted 240-fold in TE buffer and added 0.06 ml per well. The contents of wells were mixed and fluorescence was measured (excitation=480 nm, emission=520 nm). Background values (no RNA) were subtracted from standard and test sample values and the concentrations of RNA were determined in the samples using the standard curves. The percent encapsulation of the sample was determined by dividing the difference in concentrations between sample+triton and sample in buffer alone by the sample+triton concentration.

human leptin [4] = assay: Mouse intravenous tail vein injection of modified synthetic leptin mRNA, human leptin ELISA; type: in vivo, C57BL/6 mouse; conditions: human leptin in mouse plasma, 10 μg leptin mRNA
Experimental: Before the tail vein injection, mouse body weights were recorded and diet weighted, with mice grouped according to their body weights. Mice were prepared by warming them under a heating lamp for ˜2 minutes, with the mice about 12 inches from heat lamp.
For the tail vein injection procedure, the mice were placed in a restrainer and their tails cleaned with 70% alcohol. A 27 gauge needle (Becton Dickinson, Catalogue #305109) connected with a 1 ml syringe (Becton Dickinson, Catalogue #309659) was inserted into the tail vein, with bevel facing up, and the syringe plunger was pulled backwards to ensure blood is drawn into the syringe. The desired volume of modified synthetic leptin mRNA was injected by hand with moderate pressure and speed. The needle was then withdrawn and bleeding stopped by adding pressure to injection site with gauze.
Single housed, 8-9 week old, male C57BL/6 mice were used for the in vivo study. FPLC purified modified synthetic leptin mRNA (SEQ ID NO: 5) in which the uridines were substituted with pseudouridine was packaged in a cationic lipid (N:P molar ratio=8:1) and then were diluted in injectable saline at a dose of 10 μg per average group body weight.
On day 0, animals were weighed and sorted according to average body weight. Mice were dosed, and food intake (FI) was recorded, on each of days 1-7 and days 9, 11, and 16.
(§1) Human leptin in mouse plasma was measured by ELISA. Antibodies purchased from the R&D Systems duoset (Cat# DY398E, part#840279 for capture antibody and part#840280 for detection antibody) were reconstituted using PBS and titered, again using PBS. The capture antibody was coated at 4 ug/ml in 30 ul/well on a white Nunc® Maxisorp 384 well plate (Cat#460372). After an overnight incubation at room temperature the capture antibody was aspirated and the plate blocked for 2 hours at room temperature with 90 ul/well of KPL milk blocker (Cat#50-82-00). Once the incubation was completed the plate was aspirated and recombinant standards and samples were added to the plate at 30 ul/well for 2 hours at 37° C. while shaking at 600 rpm. Sample/standard dilutions were made using casein sample diluent. Washing/aspiration 3 times with 100 ul/well followed, using Teknova plate wash solution (Cat# P1192). Next, detection antibody was diluted using casein detection antibody diluent to 12.5 ng/ml and added at 30 ul/well for 2 hours room temperature. After this incubation, the plate was washed again and a solution of poly-streptavidin-HRP (Cat#21140) at a 1:1250 dilution in HRP dilution buffer was added to each well (30 ul/well) and incubated for 30 minutes room temperature. A final wash/aspiration removed the HRP solution and a chemiluminescent substrate was added at 30 ul/well (Cat#1859678 & 1859679). The plate was quickly read using a SpectramaxM5 plate reader with a 50 ms integration time. The dynamic range of the ELISA is from 100-2,000 pg/ml (6.25-125 pM) of human leptin.

[5] = system: plasma Factor VII enzyme activity; assay: Mouse Factor VII dosing / Factor VII Activity Assay; type: in vivo; conditions: percent knock down of plasma Factor VII activity, CD-1 mice, single IV dose 0.03 mg/kg, 48 h
Procedure, shortened: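 Female CD-1 mice (~25 g) received a single IV tail-vein dose of lipid-nanoparticle-formulated Factor VII siRNA (0.3 or 0.03 mg/kg). Plasma taken ~48 h later; FVII activity measured chromogenically against vehicle-control plasma standard curve, reported as % knockdown.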

PLK-1 mRNA = assay: LS411N Xenograft Assay; type: in vivo, Nu/Nu mice; conditions: percent knock down of PLK-1 mRNA vs control in LS411N tumors, IV 3 mg/kg daily for three days
Experimental: Female Nu/Nu mice (6-8 weeks old) were implanted subcutaneously with 5×10^6 LS411N cells. Tumor growth was monitored by caliper measurement before treatment initiation. Mice bearing 150-250 mm^3 subcutaneous tumors were randomized and enrolled in the study. The stock siRNA formulations were diluted to […] with PBS for dosing. Animals enrolled in different groups received a single daily bolus IV injection of 3 mg/kg siRNA for three days. Tumors were harvested 24 hours post last injection to assess target gene regulation by qRT-PCR.
Lipid nanoparticles comprising lipid compounds of formula (I) and the PLK1-424 siRNA duplex sequence listed above were tested in the LS411N Xenograft Assay. The results of this assay are given in Table 5 below as a percent knock down of PLK-1 mRNA as compared to the control when administered as a single daily dose for three days at a dose of 3 mg/kg.

human leptin [6] = assay: Mouse subcutaneous injection of modified synthetic leptin mRNA, human leptin ELISA; type: in vivo; conditions: human leptin in mouse plasma, 10 μg leptin mRNA
Experimental: Prior to subcutaneous injection, mouse body weights were recorded and diet weighted, with mice grouped according to their body weights. The mice were manually restrained and placed on a work surface. Their scruffs were pinched and lifted away from the underlying muscle, the space into which was inserted a 25 gauge needle connected with a 1 ml syringe. The syringe plunger was pulled backwards in such a way as to ensure no fluid was drawn into the syringe, and then the desired volume of leptin mRNA was hand injected with moderate pressure and speed. The needle was then withdrawn and the mice returned to their cages.
8-9 week old, male C57BL/6 mice were used for the in vivo study. FPLC purified modified synthetic leptin mRNA (SEQ ID NO: 5) in which the uridines were substituted with pseudouridine (N:P molar ratio=8:1) packaged in multiple cationic lipid were diluted in injectable saline at a dose of 10 μg per average group body weight.
On day 0, animals were weighed and sorted according to average body weight. ice were dosed at 9 AM and blood was taken at 9 AM on day 0. Blood was also taken at 9 AM on each of days 1 and 2 and assessed for leptin protein levels. Body weight and food intake were also recorded.
as §1, with “leptin. The assay is applicable to plasma from mice, rats and cynomolgus monkeys.” for “leptin.”

[7] = FVII siRNA LNP, Chol/DSPC/S010, molar ratio 45/44/9/2, Z-average
[8] = leptin mRNA lipid nanoparticles
[9] = FVII siRNA LNP, Chol/DSPC/S010, molar ratio 45/44/9/2

SMILES | Size (nm) [1, 7] [nm] | Size (nm) [1, 8] [nm] | PDI [2, 9] | PDI [2, 8] | % encapsulation [3] [%] | Leptin expression IV-C57BI/6, 24 h (human leptin [4]) [ng/mL] | KD FVII 0.03 mg/kg ([5]; LNP Chol/DSPC/PEG-DMG 45/44/9/2) [%] | KD FVII 0.03 mg/kg ([5]; LNP Chol/DSPC/S010 45/44/9/2) [%] | LS411 KD 3 × 3 mg/Kg (PLK-1 mRNA; LNP Chol/DSPC/PEG-DSG 45/44/9/2) [%] | LS411 KD 3 × 3 mg/Kg (PLK-1 mRNA; LNP Chol/DSPC/S010 45/44/9/2) [%] | Leptin expression SC-C57BI/6, 24 h (human leptin [6]) [ng/mL] | Leptin expression IV-C57BI/6 (ng/mL), 6 h (human leptin [4]; 6 h)
CCCCCCCC(=O)OCCCCCCCCCCOC(=O)CCC(=O)OCc1cc(COC(=O)CCC(=O)OCCCCCCCCCCOC(=O)CCCCCCC)cc(CN(C)C)c1 [Example 78, O,O′-((5-((dimethylamino)methyl)-1,3-phenylene)bis(methylene))bis(10-(octanoyloxy)decyl)disuccinate] | 178.2 | 164.0 | 0.043 | 0.150 | 71.1 | 0.96 |  |  |  |  |  | 
CCCCCCCCCC(=O)OCCCCCCCCOc1cc(CN(C)C)cc(OCCCCCCCCOC(=O)CCCCCCCCC)c1 [Example 52, ((5-((dimethylamino)methyl)-1,3-phenylene)bis(oxy))bis(octane-8,1-diyl)bis(decanoate)] |  |  |  |  |  | 21.18 | 72.5 | 73.5 | 69 | 50 | 0.85 | 
CCCCCCCCCOC(=O)CCCCCCC(=O)OCc1cc(COC(=O)CCCCCCC(=O)OCCCCCCCCC)cc(CN(C)C)c1 [Example 79, O′^1,O^1-((5-((dimethylamino)methyl)-1,3-phenylene)bis(methylene)) 8-dinonyl dioctanedioate] |  | 140.5 |  | 0.116 | 91.6 |  |  |  |  |  |  | 1.36 (6 h) ng/mL
CCCCCCCCCCCCOC(=O)CCCCCOc1cc(CN(C)C)cc(OCCCCCC(=O)OCCCCCCCCCCCC)c1 [Example 90, didodecyl 6,6′-((5-((dimethylamino)methyl)-1,3-phenylene)bis(oxy))dihexanoate] | 87.54 | 164.7 | 0.073 | 0.090 | 80.9 | 0.74 |  |  |  |  |  | 
